Reference: PMC10146250, “Study on the liver Drug’s dominant metabolic enzymes for six effective components of the Huang qi Liuyi decoction” (Frontiers in Pharmacology, 2023)

Legend:
[1] = set-up: method as in Wang et al., 2022c; conditions: oral administration of HQD, ref Wang et al., 2022c; cited from earlier work
[2] = Metabolic conversion in the liver microsomal incubation system without inhibitor; conditions: for Metabolic conversion rate under different reaction times: 0, 15, 30, 45, 60, 90 min at 37°C; for Metabolic conversion rate at different protein concentrations: liver microsomal protein 0, 0.25, 0.5, 0.75, 1, 2 mg/mL, 60 min
Description: Before the experiment, the mice were fasted for 12 h, and were euthanized after blood was taken from the eye sockets. The liver was quickly removed and perfused with pre-cooled saline through the hepatic portal vein until the liver was earthy yellow, washed three times with 1.15% KCl solution, wiped dry with filter paper, and then weighed. The liver was then cut up, homogenized with three times the volume of ethylene diamine tetraacetic acid (EDTA) in an ice bath, and centrifuged at 4°C for 10 min at 3,000 g. The supernatant was filtered, and the filtrate was centrifuged at 4°C for 20 min at 12,000 g. The supernatant was then centrifuged at 4°C for 45 min at 100,000 g, and the precipitate was resuspended in a resuspension solution (EDTA homogenate containing 20% glycerol). The protein concentration of the microsomes was determined using the BCA protein concentration determination kit, and the microsomes were aliquoted and pre-stored at −20°C for 60 min and transferred to −80°C for storage.
The total volume of the reaction was kept at 200 μL. The in vitro incubation system comprised of 50 μL liver microsomes (1 mg/mL), 50 μL specific inhibitor solution, 20 μL nicotinamide adenine dinucleotide phosphate (NADPH, 1 mmol/L), and 80 μL standard solution (100 ng/mL). The solution containing liver microsomes, specific inhibitors, and the standard solution was pre-incubated for 5 min at 37°C. NADPH, pre-incubated for 5 min at 37°C, was added to commence the reaction, and the solution was incubated for 60 min at 37°C on a thermostatic oscillator. At the end of the reaction, […] of ice-cold methanol containing the IS (the final concentrations of digoxin and puerarin were 0.745 μg/mL and 1 μg/mL, respectively) was added to terminate the reaction. The samples were vortexed for 1 min and centrifuged for 10 min (15,000 r/min). The contents of six active components in the supernatant were determined by HPLC-MS-MS. All reactions were performed in triplicate.
The six-component mixed standard solutions were incubated with the liver microsomal sample of different protein concentrations (0, 0.25, 0.5, 0.75, 1, 2 mg/mL) for 60 min, each with six replicates. Subsequently, samples were prepared according to the methods described in Section 2.6. The residual contents of the six effective components in each group were determined by HPLC-MS/MS to calculate the metabolic conversion rate.
The mixed standard solution containing the six components was incubated with mouse liver microsomes at 37°C for different time (0, 15, 30, 45, 60, 90 min), each with six replicates. Subsequently, samples were prepared according to the methods described in Section 2.6. The residual contents of the six effective components in each group were determined by HPLC-MS/MS to calculate the metabolic conversion rate.
The standard solution of astragaloside IV, glycyrrhizic acid, calycosin-glucuronide, formononetin, calycosin-7-O-β-D-glucoside, and ononin was added to phosphate-buffered saline (PBS, pH 7.0) as desired for dilution to produce a series of mixed solutions (50, 100, 250, 500, 1,000 ng/mL). Each mixed solution sample was incubated with 1.0 mg/mL liver microsomes for 60 min. The residual contents of the six effective components were determined by HPLC-MS/MS to calculate the metabolic conversion rate.
Α-naphthoflavone, quinidine, clomethiazole, ticlopidine, ketoconazole, and fluconazole were selected as specific inhibitors of CYP1A2, CYP2D22, CYP2E1, CYP2C37, CYP3A11, and CYP2C11, respectively ([El-Sherbeni and El-Kadi, 2014]; [Xu et al., 2016]). Forty-eight mice were randomly divided into eight groups of six mice each. The eight groups comprised six different specific inhibitor groups, a negative control group and a control group. For different specific inhibitor groups, mouse liver microsomes were incubated with related CYP450 enzyme specific inhibitors and mixed standard solutions.

liver CYP450 enzymes = experiment: Mouse liver microsomal incubation with the panel of specific CYP enzyme inhibitors; type: in vitro ADME; conditions: mouse liver microsomes 1 mg/mL, 60 min, 37°C, component 100 ng/mL; inhibitors of CYP1A2, CYP2D22, CYP2E1, CYP2C37, CYP3A11, CYP2C11
Description: (§1) All reactions were performed in triplicate.

CYP2C11 = experiment: Mouse liver microsomal incubation with fluconazole, specific inhibitor of CYP2C11; type: in vitro ADME; conditions: mouse liver microsomes 1 mg/mL, 60 min, 37°C, component 100 ng/mL, vs negative control without inhibitor
Description: as §1

CYP3A11 = experiment: Mouse liver microsomal incubation with ketoconazole, specific inhibitor of CYP3A11; type: in vitro ADME; conditions: mouse liver microsomes 1 mg/mL, 60 min, 37°C, component 100 ng/mL, vs negative control without inhibitor
Description: as §1

CYP2C37 = target: T1, CYP2C37 (Mus musculus, UniProt P56654); experiment: Mouse liver microsomal incubation with ticlopidine, specific inhibitor of CYP2C37; type: in vitro ADME; conditions: mouse liver microsomes 1 mg/mL, 60 min, 37°C, component 100 ng/mL, vs negative control without inhibitor
T1 construct: from tissue; host or cells: liver microsomes of control (db/m) mice
T1 sequence (P56654 21-490): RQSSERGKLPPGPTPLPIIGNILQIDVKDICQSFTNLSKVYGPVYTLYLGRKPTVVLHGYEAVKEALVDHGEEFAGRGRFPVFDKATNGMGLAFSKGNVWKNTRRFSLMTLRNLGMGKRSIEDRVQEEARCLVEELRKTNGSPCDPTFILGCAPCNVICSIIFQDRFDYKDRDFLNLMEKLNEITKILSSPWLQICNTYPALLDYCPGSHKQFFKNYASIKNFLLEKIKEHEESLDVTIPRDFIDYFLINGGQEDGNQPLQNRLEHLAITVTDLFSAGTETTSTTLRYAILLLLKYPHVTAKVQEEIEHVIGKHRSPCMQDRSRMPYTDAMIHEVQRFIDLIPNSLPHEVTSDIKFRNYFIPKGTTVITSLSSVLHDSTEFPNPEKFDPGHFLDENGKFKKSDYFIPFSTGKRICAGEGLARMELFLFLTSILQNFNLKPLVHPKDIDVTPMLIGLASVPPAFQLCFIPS
Description: as §1

CYP1A2 = target: T2, CYP1A2 (Mus musculus, UniProt P00186); experiment: Mouse liver microsomal incubation with α-naphthoflavone, specific inhibitor of CYP1A2; type: in vitro ADME; conditions: mouse liver microsomes 1 mg/mL, 60 min, 37°C, component 100 ng/mL, vs negative control without inhibitor
T2 construct: from tissue; host or cells: liver microsomes of control (db/m) mice
T2 sequence (P00186 1-513): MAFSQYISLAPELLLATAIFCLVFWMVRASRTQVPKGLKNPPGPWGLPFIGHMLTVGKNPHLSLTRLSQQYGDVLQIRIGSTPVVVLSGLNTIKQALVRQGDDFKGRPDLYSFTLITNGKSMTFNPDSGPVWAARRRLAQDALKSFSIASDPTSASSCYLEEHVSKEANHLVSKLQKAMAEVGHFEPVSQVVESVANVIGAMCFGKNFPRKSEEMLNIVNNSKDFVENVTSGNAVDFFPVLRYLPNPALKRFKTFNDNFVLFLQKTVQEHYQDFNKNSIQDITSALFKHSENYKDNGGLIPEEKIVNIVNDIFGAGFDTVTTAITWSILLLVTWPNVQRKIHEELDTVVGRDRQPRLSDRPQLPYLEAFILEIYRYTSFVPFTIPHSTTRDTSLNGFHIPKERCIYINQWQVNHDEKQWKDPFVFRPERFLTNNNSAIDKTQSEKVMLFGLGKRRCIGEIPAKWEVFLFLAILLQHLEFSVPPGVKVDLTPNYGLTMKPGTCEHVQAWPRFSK
Description: as §1

CYP2E1 = target: T3, CYP2E1 (Mus musculus, UniProt Q05421); experiment: Mouse liver microsomal incubation with clomethiazole, specific inhibitor of CYP2E1; type: in vitro ADME; conditions: mouse liver microsomes 1 mg/mL, 60 min, 37°C, component 100 ng/mL, vs negative control without inhibitor
T3 construct: from tissue; host or cells: liver microsomes of control (db/m) mice
T3 sequence (Q05421 whole entry): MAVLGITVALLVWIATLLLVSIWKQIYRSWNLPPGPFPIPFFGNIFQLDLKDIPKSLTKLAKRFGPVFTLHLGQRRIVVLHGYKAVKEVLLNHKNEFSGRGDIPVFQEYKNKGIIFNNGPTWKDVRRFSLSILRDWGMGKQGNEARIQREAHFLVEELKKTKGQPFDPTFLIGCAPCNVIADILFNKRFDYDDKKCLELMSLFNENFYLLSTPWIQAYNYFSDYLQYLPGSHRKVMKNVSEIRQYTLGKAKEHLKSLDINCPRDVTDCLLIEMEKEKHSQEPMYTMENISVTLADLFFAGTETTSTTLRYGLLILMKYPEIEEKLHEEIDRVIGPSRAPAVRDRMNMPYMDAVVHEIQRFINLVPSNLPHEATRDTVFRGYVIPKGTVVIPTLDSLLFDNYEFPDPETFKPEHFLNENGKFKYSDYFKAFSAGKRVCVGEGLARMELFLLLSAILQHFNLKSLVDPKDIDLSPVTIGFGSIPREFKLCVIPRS
Description: as §1

| Structure (SMILES) | Absorption and elimination in mice with diabetic nephropathy [1] | Metabolic conversion rate under different reaction times [2] | Metabolic conversion rate at different protein concentrations [2] | Effect of the specific CYP enzyme inhibitors on metabolism of the component (liver CYP450 enzymes) | Effect of fluconazole (CYP2C11 inhibitor) on metabolism of the component (residual content) (CYP2C11) | Effect of ketoconazole (CYP3A11 inhibitor) on metabolism of the component (residual content) (CYP3A11) | Effect of ticlopidine (CYP2C37 inhibitor) on metabolism of the component (residual content) (CYP2C37) | Effect of α-naphthoflavone (CYP1A2 inhibitor) on metabolism of the component (residual content) (CYP1A2) | Effect of clomethiazole (CYP2E1 inhibitor) on metabolism of the component (residual content) (CYP2E1) |
| --- | --- | --- | --- | --- | --- | --- | --- | --- | --- |
| COc1ccc(-c2coc3cc(O[C@@H]4O[C@H](CO)[C@@H](O)[C@H](O)[C@H]4O)ccc3c2=O)cc1O [Calycosin-7-O-β-D-glucoside] | greater absorption and delayed elimination | increased with time, however, saturated after 60 min | initially increased with the increase in protein concentration | not affected | – | – | – | – | – |
| COc1ccc(-c2coc3cc(O)ccc3c2=O)cc1 [Formononetin] | greater absorption and delayed elimination | increased with time, however, saturated after 60 min | initially increased with the increase in protein concentration | – | prevented the metabolism | prevented the metabolism | – | – | – |
| CC(C)(O)[C@@H]1CC[C@](C)([C@H]2[C@@H](O)C[C@@]3(C)[C@@H]4C[C@H](O[C@@H]5O[C@H](CO)[C@@H](O)[C@H](O)[C@H]5O)[C@H]5C(C)(C)[C@@H](O[C@@H]6OC[C@@H](O)[C@H](O)[C@H]6O)CC[C@@]56C[C@@]46CC[C@]23C)O1 [Astragaloside IV] | greater absorption and delayed elimination | increased with time, however, saturated after 60 min | initially increased with the increase in protein concentration | – | prevented the metabolism | – | prevented the metabolism | – | – |
| CC1(C)[C@@H](O[C@H]2O[C@H](C(=O)O)[C@@H](O)[C@H](O)[C@H]2O[C@@H]2O[C@H](C(=O)O)[C@@H](O)[C@H](O)[C@H]2O)CC[C@]2(C)[C@H]3C(=O)C=C4[C@@H]5C[C@@](C)(C(=O)O)CC[C@]5(C)CC[C@@]4(C)[C@]3(C)CC[C@@H]12 [Glycyrrhizic acid] | greater absorption and delayed elimination | increased with time, however, saturated after 60 min | initially increased with the increase in protein concentration | – | – | prevented the metabolism | prevented the metabolism | – | – |
| COc1ccc(-c2coc3cc(O[C@@H]4O[C@H](CO)[C@@H](O)[C@H](O)[C@H]4O)ccc3c2=O)cc1 [Ononin] | greater absorption and delayed elimination | increased with time, however, saturated after 60 min | initially increased with the increase in protein concentration | not affected | – | – | – | – | – |
| COc1ccc(-c2coc3cc(O)ccc3c2=O)cc1O | greater absorption and delayed elimination | increased with time, however, saturated after 60 min | initially increased with the increase in protein concentration | – | – | – | – | prevented the metabolism | prevented the metabolism |
